Laboratory results reported in US7875270B2, “Treatment solution and method for preventing posterior capsular opacification by selectively inducing detachment and/or death of lens epithelial cells” (Abbott Medical Optics Inc., priority 2002, dated 2011).

What was measured:
in vivo rabbit eyes = test: In vivo prevention of PCO after cataract operation in rabbit eyes; details: bumetanide and hyperosmotic NaCl
Description: The experimental group includes sixteen rabbit eyes and the control group includes four rabbit eyes. A sham cataract operation is performed on the control animals. The therapy is introduced to the others.
The pupil of each rabbit eye is preoperatively dilated with topical G Phenylephrine 10% (Alcon Labs., Inc., China) and G Cyclopentolate 1% (Bausch & Lomb Pharm., Inc., USA) three times in one hour. The rabbits are anesthetized with ketamine hydrochloride (5 mg kg-1) and xylazine hydrochloride (2 mg kg-1) and placed on an operating table. A topical anesthetic (Dieaine hydrochloride 1%) is used every five minutes on two occasions. A wire lid speculum is placed to hold the eyelids open.
A 3.2 mm scleral tunnel incision into the eye is formed at the temporal limbus. The anterior chamber is maintained with viscoelastic substances and a 4-5 mm diameter continuous curvilinear capsularhexis (CCC) is made on the anterior surface of the lens to open its bag. The treatment solution is first introduced in the LECs by hydrodissection. This ensures that the treatment fluid immediately reaches under the entire anterior capsule/LECs. This process allows for (i) separation of the lens cortex from the capsule and lens epithelium, making removal of the lens cortex easier at a later stage of the operation and (ii) the LECs to be exposed to the treatment for enough time (more than five minutes in total time).
The crystalline lens is then removed using phacoemulsification (Universal II, Alcon Labs., Inc., China). The remaining cortex is aspirated thoroughly and removed as completely as possible to expose the LECs. The lens capsular bag is then partially filed with viscoelastic material in order to maintain its shape. The viscoelastic material should not cover the LECs when the treatment solution is applied.
The treatment is spread over the inner surface of the anterior capsular bag (where the LECs attach). The anterior capsular is continuously filled by using a syringe with a bent needle. Care is taken not to over flow the bag. After the treatment solution covered the capsule bag, it is left for five minutes and then removed using a syringe.
In a few cases, IOLs are inserted. […] At the same time, the incision is enlarged to 6.0 mm and a posterior ocular lens (IOLs) (poly-methyl methacrylate, PMMA) with a 6.5 mm optic is prepared and placed into the capsular bag.
The wound is closed with or without suture.
At the completion of the surgical procedure, each rabbit eye receives subconjunctival dexamethasone (0.25 ml) and gentamicin (0.25 ml). Postoperatively, atropine sulphate 1% ophthalmic solution and neomycin sulphate-polymyxin sulphate-dexamethasone ophthalmic ointment are administered twice daily for three weeks.
The animals are evaluated for three weeks and ten weeks. […] All rabbits are evaluated by slitlamp and scored for ocular responses at 1 day and at 1, 2 and 3 weeks. (See FIG. 17, Table 1.) Three and ten weeks after surgery, the animals are anesthetized using a 2 ml intramuscular injection of 11:1 mixture of ketamine hydrochloride and xylazine 20 mg/ml and then killed with a 2 ml intravenous injection of sodium pentobarbital.
The eye globes are enucleated (some of them fixed in neutral buffered formalin 10% solution for 24 hours) and are bisected coronally just anterior to the equator. Gross examination is performed to assess. PCO development. Photographs are taken from behind (Miyake-Apple posterior photographic technique) by using a digital camera fitted to an operating microscope (Leica/Wild MZ-8, Vashaw Scientific, Inc.).
The extent and severity of PCO is scored (see FIG. 17, Table 1) according to methods reported in the literature. The lens capsules are then fixed and evaluated under a microscope (Olumpus, Optical Co. Ltd.) and photographed with a digital camera.

[1] = tested on: human LECs-CCCs freshly removed from cataract operation; test: In situ treatment of LECs attached to capsulorhexis lens capsule (LECs-CCC); format: cell-based
Description: The in situ effects of a treatment solution comprising dihydrochlorothiazide (DHCT) (a cotransport interference agent from the group of the thiazide and related diuretics) and hyperosmotic NaCl on human LECs is examined. The treatment is tested on LECs that are still attached to a continuous curvilinear capsulorhexis lens capsule (LECs-CCC) which are freshly removed from a human cataract operation.
The LECs-CCCs are obtained from a cataract operation and immediately put in freshly prepared Eagle's Minimum Essential Medium (MEM) supplemented with 2 mM glutamine, 25 mmol/L Hepes (pH 7.4) without foetal cow serum (FCS) and is transferred to the laboratory for evaluation. Viable LECs are identified by staining the LECs-CCCs for five minutes with 0.2% Trypan Blue. The sheets containing more than 70% viable LECs are used to assess the efficacy of the treatment. […]
In the first step, a hyperosmotic solution of NaCl is prepared by making a stock solution of 2 M NaCl by adding 58.44 g NaCl (supplied by Sigma Chemical Co., U.S.) to 500 ml dH2O. The desired concentration of osmotic NaCl is prepared by diluting the 2M stock solution with dH2O. For example, to make a hyperosmotic solution of 170 mM NaCl, the 2M NaCl stock solution was diluted with dH2O at a ratio of […]. To make a hyperosmotic solution of 200 mM NaCl, the 2M NaCl stock solution is diluted with dH2O at a ratio of 1 to 9. Final osmolarities (mOsm/kg/H2O) are determined by a freezing point depression method using cryoscopic osmometry.
In the second step, DHCT stock solution is made by adding 25 mg DHCT to 1 ml dH2O. […]
The treatment is applied by exposing the LECs-CCCs for five minutes in a small petri dish containing the treatment solution. The treatment solution is removed after five minutes exposure by a syringe and then the fresh PBS is added in the petri dish to wash away the treatment solution. The LECs-CCCs are washed three times. The changes of the LECS are monitored under a microscope. Microscope photographs are taken at 0, 2 and 5 minutes and after wash.

[2] = tested on: human lens epithelial cells (LECs); test: Confluent LEC monolayers exposed to solutions; MTT cell viability and microscopy; format: cell-based; details: 28 μM, 112 μM and 224 μM bumetanide, ≦200 mM NaCl, 3 μl of 5N NaOH

Compound: CCCCNc1cc(C(=O)O)cc(S(N)(=O)=O)c1Oc1ccccc1 [bumetanide]
- Soemmering's ring (in vivo rabbit eyes): Some degree of Soemmering's ring forms
- cell proliferation on the lens anterior capsule (in vivo rabbit eyes; three weeks): not significant cell proliferation
- development of CPCO and PPCO (in vivo rabbit eyes; three weeks follow up): no CPCO and PPCO develop
- LEC changes after exposure ([1]; 308 μm bumetanide and hyperosmotic 170 or 200 mM NaCl): do not detach, but arrest and die while shrunken
- LEC death by trypan blue exclusion ([1]; 308 μm bumetanide and hyperosmotic NaCl, after washing): cells died after treatment
- LECs showing MTT negative response [2]: ~100%
- LEC response under phase-contrast microscopic observation ([2]; about ten minutes): nearly all of the LECs shrink, detach and/or die
